Patent US5968967A, “Pyrazolones derivatives” (Nissan Chemical Industries, Ltd., priority 1995, dated 1999)
Where a name gives a salt, the structure may show the parent alone. Read-outs that look alike come from different tables or passages of the source.

System: Guinea-pig PRP (platelet aggregation)
Assay: (A) In vitro antiplatelet aggregation effect in guinea pigs (PRP), Table IV-1
Assay type: cell-based, guinea pig (Hartley male)
Settings: Cavia porcellus, PRP 300,000/mm^3, 37° C.
Method: Nine parts by volume of blood was collected from the abdominal artery of Hartley male guinea-pigs (weight: about 300 g) in syringes containing 1 part by volume of 3.8% sodium citrate. The blood thus obtained was centrifuged at 200×g for 10 minutes at room temperature to obtain platelet rich plasma (PRP). Furthermore, the residue was centrifuged at 2000×g for 15 minutes to obtain platelet poor plasma (PPP). The measurement was effected by diluting PRP with PPP to 300,000/mm^3. PRP and PPP were put in cuvettes, and the measurement range of transmittance was adjusted to 0% in the case of PRP and to 100% in the case of PPP. Thereafter, a test sample drug dissolved in H2 O:MeOH (1:2) was added to PRP. After the PRP was incubated at 37° C. at 1000 rpm for 2 minutes, an aggregating agent was added to record an aggregation curve. The antiplatelet aggregation effect of the test sample drug was expressed by the concentration (IC50 : μM) at which the aggregation of the control sample was 50% inhibited. […] The measurement of platelet aggregation was carried out by using NBS HEMA TRACER 601.
In vitro antiplatelet aggregation tests; (A) and (B) Tables IV-1 and 2 show antiplatelet aggregation effects of test compounds evaluated as IC50 values (μM). The compound Nos. in Table I should be referred to for the structures of the compounds.

[1] = aggregating agent ADP, read-out: Guinea-pig PRP IC50, ADP
[2] = aggregating agent collagen 1 to 2 μg/ml, read-out: Guinea-pig PRP IC50, Collagen

| SMILES | IC50 [1] | IC50 [2] |
| --- | --- | --- |
| CCOC(=O)COC1CCN(C(=O)c2c(-c3ccc(-c4ccc(Cl)cc4)cc3)n(C)n(-c3ccc(C(=N)N)cc3)c2=O)CC1 [Compound No. 2] | 8.1 µM | 3.9 µM |
| Cn1cc(C(=O)N2CCC(OCC(=O)O)CC2)c(=O)n1-c1ccc(C(=N)N)cc1 [Compound No. 10] | 35 µM | 17 µM |
| CCOC(=O)COC1CCN(C(=O)c2cn(C)n(-c3ccc(C(=N)N)cc3)c2=O)CC1 [Compound No. 11] | 31 µM | 17 µM |
| Cn1c(-c2ccc(C(C)(C)C)cc2)c(C(=O)N2CCC(OCC(=O)O)CC2)c(=O)n1-c1ccc(C(=N)N)cc1 [Compound No. 28, 1-(4-amidinophenyl)-3-(4-t-butylphenyl)-4-([4-(carboxymethyloxy)-1-piperidinyl]carbonyl}-2-methyl-2H-pyrazol-5-one hydrochloride] | 25 µM | 17 µM |
| Cn1cc(C(=O)NCCCOCC(=O)O)c(=O)n1-c1ccc(C(=N)N)cc1 [compound 7] | 300 µM | – |
| CCOC(=O)COCCN(C)C(=O)c1c(-c2ccccc2)n(C)n(-c2ccc(C(=N)N)cc2)c1=O [compound 15] | 114 µM | 57 µM |
| Cn1c(-c2ccccc2)c(C(=O)N2CCC(OCC(=O)O)CC2)c(=O)n1-c1ccc(C(=N)N)cc1 [compound 17] | 20 µM | 23 µM |
| CCOC(=O)COCCNC(=O)c1c(-c2ccc(-c3ccccc3)cc2)n(C)n(-c2ccc(C(=N)N)cc2)c1=O [compound 20] | 30 µM | 12 µM |
| CCOC(=O)COC1CCN(C(=O)c2c(-c3ccc(-c4ccccc4)cc3)n(C)n(-c3ccc(C(=N)N)cc3)c2=O)CC1 [compound 23] | 17 µM | 9.3 µM |
| Cn1c(-c2ccc(C(C)(C)C)cc2)c(C(=O)NCCOCC(=O)O)c(=O)n1-c1ccc(C(=N)N)cc1 [compound 24] | 46 µM | 19 µM |
| CCOC(=O)COCCNC(=O)c1c(-c2ccc(C(C)(C)C)cc2)n(C)n(-c2ccc(C(=N)N)cc2)c1=O [compound 25] | 43 µM | 20 µM |
| Cn1c(-c2ccc(C(C)(C)C)cc2)c(C(=O)NC2CCN(CC(=O)O)CC2)c(=O)n1-c1ccc(C(=N)N)cc1 [compound 109] | 3.4 µM | 4 µM |
| CCOC(=O)CN1CCC(NC(=O)c2c(-c3ccc(C(C)(C)C)cc3)n(C)n(-c3ccc(C(=N)N)cc3)c2=O)CC1 [compound 110] | 5 µM | 3.1 µM |
| CN(C(=O)c1c(-c2ccc(C(C)(C)C)cc2)n(C)n(-c2ccc(C(=N)N)cc2)c1=O)C1CCN(CC(=O)O)CC1 [compound 111] | 11 µM | 8.1 µM |
| CCOC(=O)CN1CCC(N(C)C(=O)c2c(-c3ccc(C(C)(C)C)cc3)n(C)n(-c3ccc(C(=N)N)cc3)c2=O)CC1 [compound 112] | 37 µM | 14 µM |
| CCOC(=O)CN(C=O)C1CCN(C(=O)c2c(-c3ccc(C(C)(C)C)cc3)n(C)n(-c3ccc(C(=N)N)cc3)c2=O)CC1 [compound 114] | 21 µM | 14 µM |
| CN(CC(=O)O)C1CCN(C(=O)c2c(-c3ccc(C(C)(C)C)cc3)n(C)n(-c3ccc(C(=N)N)cc3)c2=O)CC1 [compound 115] | 93 µM | 68 µM |
| CCOC(=O)CN(C)C1CCN(C(=O)c2c(-c3ccc(C(C)(C)C)cc3)n(C)n(-c3ccc(C(=N)N)cc3)c2=O)CC1 [compound 116] | – | 90 µM |
| Cn1c(-c2ccc(-c3ccccc3)cc2)c(C(=O)NC2CCN(CC(=O)O)CC2)c(=O)n1-c1ccc(C(=N)N)cc1 [compound 125] | 42 µM | 4.2 µM |
| CCOC(=O)CN1CCC(NC(=O)c2c(-c3ccc(-c4ccccc4)cc3)n(C)n(-c3ccc(C(=N)N)cc3)c2=O)CC1 [compound 126] | 76 µM | 7.6 µM |
| CCCCc1ccc(-c2c(C(=O)N3CCC(OCC(=O)OCC)CC3)c(=O)n(-c3ccc(C(=N)N)cc3)n2C)cc1 [compound 128] | 20 µM | 7.1 µM |
